Data taken from the NIST ThermoML archive (doi:10.1021/je800282a).
± gives the expanded uncertainty stated by the source.

Experiments:
[1] = for viscosity: 101.33 kPa, Liquid
[2] = refractive index (Na D-line) (dimensionless); settings: 101.33 kPa, Liquid
[3] = wn = mass fraction of the nth substance listed; settings: for viscosity: 101 kPa, Liquid
[4] = refractive index (Na D-line) (dimensionless); wn = mass fraction of the nth substance listed; settings: 101 kPa, Liquid

For CN(CCO)CCO [N-methyldiethanolamine], the viscosity ([1]; 298.15 K) was 77.85 ± 4.8 mPa·s, the surface tension liquid-gas ([1]; 303.15 K) was 38.74 ± 1.1 mN/m and the viscosity ([1]; 308.15 K) was 43.9 ± 1.4 mPa·s. It also gave a surface tension liquid-gas ([1]; 313.15 K) of 37.48 ± 1 mN/m, a viscosity ([1]; 318.15 K) of 27.44 ± 0.92 mPa·s and a surface tension liquid-gas ([1]; 323.15 K) of 36.82 ± 1 mN/m. It also gave a viscosity ([1]; 328.15 K) of 17.89 ± 0.62 mPa·s, a surface tension liquid-gas ([1]; 333.15 K) of 35.31 ± 0.98 mN/m and a viscosity ([1]; 338.15 K) of 12.34 ± 0.45 mPa·s. For the same molecule, the refractive index ([2]; 303.15 K) was 1.46532 ± 0.0012, the refractive index ([2]; 313.15 K) was 1.46074 ± 0.0012 and the refractive index ([2]; 318.15 K) was 1.45892 ± 0.0012. For the same molecule, the refractive index ([2]; 323.15 K) was 1.45708 ± 0.0012 and the refractive index ([2]; 333.15 K) was 1.45287 ± 0.0012.

Work on CN(CCO)CCO [N-methyldiethanolamine] + O yielded a viscosity ([3]; 298.15 K, w1 = 0.3228) of 3.48 ± 0.17 mPa·s, a viscosity ([3]; 298.15 K, w1 = 0.488) of 9.25 ± 0.35 mPa·s and a surface tension liquid-gas ([3]; 303.15 K, w1 = 0.3288) of 53.16 ± 1.4 mN/m. For the same molecule, the surface tension liquid-gas ([3]; 303.15 K, w1 = 0.488) was 47.56 ± 1.3 mN/m, the viscosity ([3]; 308.15 K, w1 = 0.3228) was 2.26 ± 0.13 mPa·s and the viscosity ([3]; 308.15 K, w1 = 0.488) was 6.14 ± 0.25 mPa·s. It also gave a surface tension liquid-gas ([3]; 313.15 K, w1 = 0.3288) of 52.38 ± 1.4 mN/m, a surface tension liquid-gas ([3]; 313.15 K, w1 = 0.488) of 46.92 ± 1.3 mN/m and a viscosity ([3]; 318.15 K, w1 = 0.3228) of 1.82 ± 0.12 mPa·s. It also gave a viscosity ([3]; 318.15 K, w1 = 0.488) of 4.37 ± 0.2 mPa·s, a surface tension liquid-gas ([3]; 323.15 K, w1 = 0.3288) of 51.42 ± 1.4 mN/m and a surface tension liquid-gas ([3]; 323.15 K, w1 = 0.488) of 45.58 ± 1.2 mN/m. The viscosity ([3]; 328.15 K, w1 = 0.3228) was 1.34 ± 0.11 mPa·s, the viscosity ([3]; 328.15 K, w1 = 0.488) was 3.46 ± 0.17 mPa·s and the surface tension liquid-gas ([3]; 333.15 K, w1 = 0.3288) was 50.67 ± 1.4 mN/m. For the same molecule, the surface tension liquid-gas ([3]; 333.15 K, w1 = 0.488) was 44.83 ± 1.2 mN/m, the viscosity ([3]; 338.15 K, w1 = 0.3228) was 1.17 ± 0.1 mPa·s and the viscosity ([3]; 338.15 K, w1 = 0.488) was 2.81 ± 0.15 mPa·s. The refractive index ([4]; 303.15 K, w1 = 0.3228) was 1.37748 ± 0.0013, the refractive index ([4]; 303.15 K, w1 = 0.488) was 1.40298 ± 0.0013 and the refractive index ([4]; 313.15 K, w1 = 0.3228) was 1.37604 ± 0.0013. The refractive index ([4]; 313.15 K, w1 = 0.488) was 1.39971 ± 0.0013, the refractive index ([4]; 318.15 K, w1 = 0.3228) was 1.37467 ± 0.0013 and the refractive index ([4]; 318.15 K, w1 = 0.488) was 1.39629 ± 0.0013. The refractive index ([4]; 323.15 K, w1 = 0.3228) was 1.37305 ± 0.0013, the refractive index ([4]; 323.15 K, w1 = 0.488) was 1.39254 ± 0.0013 and the refractive index ([4]; 333.15 K, w1 = 0.3228) was 1.37134 ± 0.0013. For the same molecule, the refractive index ([4]; 333.15 K, w1 = 0.488) was 1.38821 ± 0.0013.
